Test results taken from patent publication US12129246B1, “Hydroquinazoline derivatives for the treatment of a disease or disorder” (Novartis AG, priority 2023, dated 2024).
Like-named read-outs stand apart in the source and are kept apart here.

What was measured:
human NPR1 = target: T1, human NPR1 (Homo sapiens, UniProt P16066); assay: Cellular cGMP production assay, human NPR1 expressing CHO-K1 cells (CisBio HTRF); assay type: cell-based; details: for AC50: cGMP production, 30 min at 37° C., 12-point dose-response from 30 μM; for Human NPR1 Amax (% of ANP): maximum cGMP production as percentage of the maximum cGMP produced with ANP
T1 construct: host or cells: CHO-K1
T1 sequence (P16066 33-1061): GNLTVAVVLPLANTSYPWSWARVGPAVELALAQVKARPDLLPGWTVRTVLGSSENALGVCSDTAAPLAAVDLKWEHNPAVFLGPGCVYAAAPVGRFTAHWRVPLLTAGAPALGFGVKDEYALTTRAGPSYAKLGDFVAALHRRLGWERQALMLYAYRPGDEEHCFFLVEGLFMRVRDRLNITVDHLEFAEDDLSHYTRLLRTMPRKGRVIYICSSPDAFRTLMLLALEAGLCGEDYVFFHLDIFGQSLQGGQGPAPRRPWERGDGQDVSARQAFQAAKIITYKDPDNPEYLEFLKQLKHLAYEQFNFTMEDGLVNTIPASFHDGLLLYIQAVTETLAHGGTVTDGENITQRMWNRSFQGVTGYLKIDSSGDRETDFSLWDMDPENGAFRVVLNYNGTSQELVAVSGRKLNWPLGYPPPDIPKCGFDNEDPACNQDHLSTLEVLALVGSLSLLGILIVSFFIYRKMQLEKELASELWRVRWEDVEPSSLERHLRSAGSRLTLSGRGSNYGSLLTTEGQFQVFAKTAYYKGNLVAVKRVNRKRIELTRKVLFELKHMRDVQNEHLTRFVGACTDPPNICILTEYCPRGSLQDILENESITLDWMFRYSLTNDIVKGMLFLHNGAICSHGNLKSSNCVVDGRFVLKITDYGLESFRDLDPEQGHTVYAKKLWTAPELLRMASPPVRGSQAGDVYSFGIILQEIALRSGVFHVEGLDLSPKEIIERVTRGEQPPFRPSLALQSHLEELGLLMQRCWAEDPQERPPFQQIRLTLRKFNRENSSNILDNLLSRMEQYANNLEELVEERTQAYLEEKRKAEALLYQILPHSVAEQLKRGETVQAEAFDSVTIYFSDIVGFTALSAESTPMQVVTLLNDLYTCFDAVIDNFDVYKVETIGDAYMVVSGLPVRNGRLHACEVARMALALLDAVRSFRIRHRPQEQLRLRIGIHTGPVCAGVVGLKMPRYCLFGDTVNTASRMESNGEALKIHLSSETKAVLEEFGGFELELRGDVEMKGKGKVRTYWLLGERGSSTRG
Outline: (§1)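 12-pt 3-fold dose-response, top 30 μM; buffer PBS + 0.1% BSA + 1 mM IBMX (PDE inhibitor); 30 min, 37 °C. Lyse, add cGMP-d2 + anti-cGMP-cryptate, 1 h RT. Ex 317 / em 665 nm; Delta F converted to cGMP via calibrator standard curve.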

monkey NPR1 = monkey NPR1 (Macaca fascicularis, UniProt A0A7N9DBT9); assay: Cellular cGMP production assay, monkey NPR1 expressing CHO-K1 cells (CisBio HTRF); assay type: cell-based; details: for Monkey NPR1 Amax (% of ANP): maximum cGMP production as percentage of the maximum cGMP produced with ANP
monkey NPR1, sequence (A0A7N9DBT9 entry or part of it): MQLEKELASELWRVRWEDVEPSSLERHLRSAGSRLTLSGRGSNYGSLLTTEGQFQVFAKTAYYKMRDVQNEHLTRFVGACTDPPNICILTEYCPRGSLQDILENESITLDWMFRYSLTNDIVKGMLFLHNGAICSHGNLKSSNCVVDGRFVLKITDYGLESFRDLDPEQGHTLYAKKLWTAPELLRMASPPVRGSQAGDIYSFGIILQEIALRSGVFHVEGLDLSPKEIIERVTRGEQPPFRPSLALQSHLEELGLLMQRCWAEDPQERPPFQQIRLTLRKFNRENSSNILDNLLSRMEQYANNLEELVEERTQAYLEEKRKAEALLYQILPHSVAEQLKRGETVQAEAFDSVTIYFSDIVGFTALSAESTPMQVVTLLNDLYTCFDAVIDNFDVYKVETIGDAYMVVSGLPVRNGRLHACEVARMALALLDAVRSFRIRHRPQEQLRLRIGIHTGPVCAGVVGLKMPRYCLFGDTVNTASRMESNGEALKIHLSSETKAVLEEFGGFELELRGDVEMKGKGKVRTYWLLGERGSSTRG
Outline: as §1

[1] = cGMP production, monkey NPR1 CHO-K1 cells, 30 min at 37° C., 12-point dose-response from 30 μM, read-out: Monkey NPR1 AC50

Structure (SMILES) | AC50 (human NPR1) [nM] | Human NPR1 Amax (% of ANP) (human NPR1) | AC50 (monkey NPR1) [nM] | Monkey NPR1 Amax (% of ANP) (monkey NPR1; monkey NPR1 CHO-K1 cells) | AC50 (monkey NPR1; [1]) [nM]
CC[C@H]([C@H]1CC[C@H](C(=O)O)CC1)N(C)c1nc2c(c(N[C@@H](CN3C4CCCC3CCC4)c3cnn(C)c3)n1)C[C@H](c1cccc(F)c1)CC2 [Compound 29, (1R,4r)-4-((R)-1-(((R)-4-(((R)-2-((1S,5S)-9-azabicyclo[3.3.1]nonan-9-yl)-1-(1-methyl-1H-pyrazol-4-yl)ethyl)amino)-6-(3-fluorophenyl)-5,6,7,8-tetrahydroquinazolin-2-yl)(methyl)amino)propyl)cyclohexane-1-carboxylic acid] | 140 | 102.911 % of ANP | 137 | 128.079 % of ANP | 
CC[C@H]([C@H]1CC[C@H](C(=O)O)CC1)N(C)c1nc2c(c(N[C@@H](CN3CCC[C@H](C)C3)c3cnn(C)c3)n1)C[C@H](c1cccc(F)c1)CC2 [Compound 23, (1R,4r)-4-((R)-1-(((R)-6-(3-fluorophenyl)-4-(((R)-1-(1-methyl-1H-pyrazol-4-yl)-2-((S)-3-methylpiperidin-1-yl)ethyl)amino)-5,6,7,8-tetrahydroquinazolin-2-yl)(methyl)amino)propyl)cyclohexane-1-carboxylic acid] | 115 | 120.018 % of ANP | 72 | 132.182 % of ANP | 
CC[C@H]([C@H]1CC[C@H](C(=O)O)CC1)N(C)c1nc2c(c(NC(CN3CCC[C@H](C)C3)c3cnn(CF)c3)n1)C[C@H](c1ccccc1)CC2 (stereo partly drawn) [Compound 107, (1R,4r)-4-((1R)-1-(((6R)-4-((1-(1-(fluoromethyl)-1H-pyrazol-4-yl)-2-((S)-3-methylpiperidin-1-yl)ethyl)amino)-6-phenyl-5,6,7,8-tetrahydroquinazolin-2-yl)(methyl)amino)propyl)cyclohexane-1-carboxylic acid] | 404 | 97.223 % of ANP |  | 100.163 % of ANP | 224
CC[C@@H](Nc1nc2c(c(N[C@@H](CN3C4CCCC3CC4)c3csc(C)n3)n1)C[C@H](c1cccc(F)c1)CC2)[C@H]1CC[C@H](C(=O)O)CC1 [Compound 127, (1R,4r)-4-((1R)-1-(((6R)-4-(((1S)-2-(8-azabicyclo[3.2.1]octan-8-yl)-1-(2-methylthiazol-4-yl)ethyl)amino)-6-(3-fluorophenyl)-5,6,7,8-tetrahydroquinazolin-2-yl)amino)propyl)cyclohexane-1-carboxylic acid] | 623 | 102.596 % of ANP | 355 | 102.089 % of ANP | 
CC[C@H]([C@H]1CC[C@H](C(=O)O)CC1)N(C)c1nc2c(c(N[C@@H](CN3CCCC[C@@H]3CO)c3cnn(C)c3)n1)C[C@H](c1ccccc1)CC2 [Compound 149, (1R,4r)-4-((R)-1-(((R)-4-(((R)-2-((R)-2-(hydroxymethyl)piperidin-1-yl)-1-(1-methyl-1H-pyrazol-4-yl)ethyl)amino)-6-phenyl-5,6,7,8-tetrahydroquinazolin-2-yl)(methyl)amino)propyl)cyclohexane-1-carboxylic acid] | 1140 | 130.209 % of ANP |  | 164.167 % of ANP | 1020
CC[C@@H](Nc1nc2c(c(N[C@@H](CN3CCCCCC3)c3cnn(C)c3)n1)C[C@H](c1cccc(F)c1)CC2)[C@H]1CC[C@H](C(=O)O)CC1 [Compound 3, (1R,4r)-4-((R)-1-(((R)-4-(((R)-2-(azepan-1-yl)-1-(1-methyl-1H-pyrazol-4-yl)ethyl)amino)-6-(3-fluorophenyl)-5,6,7,8-tetrahydroquinazolin-2-yl)amino)propyl)cyclohexane-1-carboxylic acid] | 66 | 105.403 % of ANP |  | 107.571 % of ANP | 45
CC[C@@H]1CCCCN1C[C@H](Nc1nc(N[C@H](CC)[C@H]2CC[C@H](C(=O)O)CC2)nc2c1C[C@H](c1ccccc1)CC2)c1cnn(C)c1 [Compound 96, (1R,4r)-4-((R)-1-(((R)-4-(((R)-2-((R)-2-ethylpiperidin-1-yl)-1-(1-methyl-1H-pyrazol-4-yl)ethyl)amino)-6-phenyl-5,6,7,8-tetrahydroquinazolin-2-yl)amino)propyl)cyclohexane-1-carboxylic acid] | 336 | 103.654 % of ANP |  | 101.912 % of ANP | 106
CC[C@@H](Nc1nc2c(c(N[C@@H](CN3CCCCC3)c3cnn(C)c3)n1)C[C@H](c1ccccc1)CC2)[C@H]1CC[C@H](C(=O)O)CC1 [Compound 56, (1R,4r)-4-((R)-1-(((R)-4-(((R)-1-(1-methyl-1H-pyrazol-4-yl)-2-(piperidin-1-yl)ethyl)amino)-6-phenyl-5,6,7,8-tetrahydroquinazolin-2-yl)amino)propyl)cyclohexane-1-carboxylic acid] | 198 | 102.955 % of ANP |  | 108.953 % of ANP | 196
CCC(N(C)c1nc2c(c(N[C@@H](CN3C4CCCC3CCC4)c3cnn(C)c3)n1)C[C@H](c1ccccc1)CC2)C12CC(C(=O)O)(C1)C2 (stereo partly drawn) [Compound 74, 3-(1-(((R)-4-(((R)-2-((1S,5S)-9-azabicyclo[3.3.1]nonan-9-yl)-1-(1-methyl-1H-pyrazol-4-yl)ethyl)amino)-6-phenyl-5,6,7,8-tetrahydroquinazolin-2-yl)(methyl)amino)-1l3-propyl)bicyclo[1.1.1]pentane-1-carboxylic acid] | 246 | 102.182 % of ANP | 167 | 117.270 % of ANP | 
CC[C@H]([C@H]1CC[C@H](C(=O)O)CC1)N(C)c1nc2c(c(N[C@@H](CN3C4CCCC3CC4)c3cnn(C)c3)n1)C[C@H](c1ccccc1)CC2 [Compound 103, (1R,4r)-4-((1R)-1-(((6R)-4-(((1R)-2-(8-azabicyclo[3.2.1]octan-8-yl)-1-(1-methyl-1H-pyrazol-4-yl)ethyl)amino)-6-phenyl-5,6,7,8-tetrahydroquinazolin-2-yl)(methyl)amino)propyl)cyclohexane-1-carboxylic acid] | 393 | 101.239 % of ANP | 350 | 106.030 % of ANP | 
CC[C@@H](N(C)c1nc2c(c(N[C@@H](CN3C4CCCC3CCC4)c3ccnn3C)n1)C[C@H](c1ccccc1)CC2)C12CC(C(=O)O)(C1)C2 [Compound 172, 3-((R)-1-(((R)-4-(((S)-2-((1R,5R)-9-azabicyclo[3.3.1]nonan-9-yl)-1-(1-methyl-1H-pyrazol-5-yl)ethyl)amino)-6-phenyl-5,6,7,8-tetrahydroquinazolin-2-yl)(methyl)amino)propyl)bicyclo[1.1.1]pentane-1-carboxylic acid] | 3680 | 94.632 % of ANP | 2580 | 111.107 % of ANP | 
CC[C@H]([C@H]1CC[C@H](C(=O)O)CC1)N(C)c1nc2c(c(N[C@@H](CN3CC4CCC3C4)c3ccccc3)n1)C[C@H](c1ccccc1)CC2 (stereo partly drawn) [Compound 136, (1R,4r)-4-((1R)-1-(((6R)-4-(((1R)-2-(2-azabicyclo[2.2.1]heptan-2-yl)-1-phenylethyl)amino)-6-phenyl-5,6,7,8-tetrahydroquinazolin-2-yl)(methyl)amino)propyl)cyclohexane-1-carboxylic acid] | 812 | 103.913 % of ANP |  | 96.754 % of ANP | 516
CC[C@@H](N(C)c1nc2c(c(N[C@@H](CN3C4CCCC3CCC4)c3cnn(C)c3)n1)C[C@H](c1ccccc1F)CC2)C12CC(C(=O)O)(C1)C2 [Compound 41, 3-((R)-1-(((R)-4-(((R)-2-(9-azabicyclo[3.3.1]nonan-9-yl)-1-(1-methyl-1H-pyrazol-4-yl)ethyl)amino)-6-(2-fluorophenyl)-5,6,7,8-tetrahydroquinazolin-2-yl)(methyl)amino)propyl)bicyclo[1.1.1]pentane-1-carboxylic acid] | 168 | 96.843 % of ANP | 144 | 92.494 % of ANP | 
